Reference: patent publication US20090170901A1, “Benzoyl Urea Derivatives” (priority 2004, published 2009)
Where two headings read alike, the source gives them in different places.

Assays:
NMRI mice = assay: Mouse formalin test (second phase) for in vivo efficacy; conditions: for ED50 at 20 mg/kg: Mus musculus, po
NR1a/NR2B NMDA receptor = target: T1, NR1a/NR2B NMDA receptor (Rattus norvegicus, UniProt P35439+Q00960); assay: Functional NMDA antagonism, fluorimetric intracellular calcium measurement on HEK293 cells expressing NR1a/NR2B; assay type: cell-based
T1 construct: expressed in transfected cells
Experimental: (§1) Compounds were tested for their inhibitory action on NMDA evoked cytosolic calcium elevations in fluorescent calcium measurements. Studies were performed 48-72 h after addition of the inducing agent. Ketamine (500 μM) was also present during the induction in order to prevent cytotoxicity.
(§2) Assessing the Functional NMDA Antagonist Potency of Compounds on HEK293 cells expressing Recombinant NMDA Receptors Based on Measuring the Intracellular Calcium Concentration Using a Fluorimeter Plate Reader
Since NMDA receptors are known to be permeable to calcium ions upon excitation, the extent of NMDA receptor activation, and its inhibition by functional antagonists can be characterised by measuring the rise in the intracellular calcium concentration following agonist (NMDA) application onto the cells.
The intracellular calcium measurements are carried out on HEK293 cells expressing NR1a and NR2B or NR2A NMDA receptor subunits.
(§3) Loading is stopped by washing twice with the solution used also during the measurement (140 mM NaCl 5 mM KCl, 2 mM CaCl2, 5 mM HEPES [4-(2-hydroxyethyl)-1-piperazineethane-sulfonic acid], 5 mM HEPES—Na, 20 mM glucose, 10 μM glycine, pH=7.4). Then the test compound dissolved in the above solution (90 μl/well) is added. Intracellular calcium measurements are carried out with a plate reader fluorimeter. A rise in Fluo-4-fluorescence that reflects the intracellular calcium concentration is induced by application of 200 μM NMDA. Inhibitory potency of the test compound is assessed by measuring the reduction in the calcium elevation in the presence of different concentrations of the compound.
(§4) Inhibitory potency of a compound at a single concentration point is expressed as percent inhibition of the control NMDA response. For NR1a/NR2B expressing cells concentration-inhibition curves are produced. Sigmoidal concentration-inhibition curves are fitted over the data and IC50 values are defined as the concentration that produces half of the maximal inhibition that could be achieved with the compound. Mean IC50 values are derived from at least three independent experiments. For NR1-3/NR2A expressing cells antagonism of NMDA induced rise in intracellular calcium concentration by compounds of the present invention and reference compounds was tested at 10 and 15 microM concentration, respectively.

NR1-3/NR2A NMDA receptor = target: T2, NR1-3/NR2A NMDA receptor (Homo sapiens, UniProt Q05586+Q12879); assay: Functional NMDA antagonism, fluorimetric intracellular calcium measurement on HEK293 cells expressing NR1-3/NR2A; assay type: cell-based; conditions: NMDA evoked calcium rise, NR1-3/NR2A transfected HEK293 cells; for inhibition at 15 µM: Table 1, 15 uM compound
T2 construct: expressed in transfected cells
Experimental: as §1, with “(1997); Neurochemistry International, 43, 19-29. (2003)]. […] Compounds” for “Compounds”
as §2
Since NMDA receptors are known to be permeable to calcium ions upon excitation, the extent of NMDA receptor activation, and its inhibition by functional antagonists can be characterised by measuring the rise in the intracellular calcium concentration following agonist (NMDA) application onto the cells. Since there is very high sequence homology between rat and human NMDA receptors (99, 95, 97% for NR1, NR2A, and NR2B subunits, respectively), it is believed that there is little, if any, difference in their pharmacological sensitivity.
The intracellular calcium measurements are carried out on HEK293 cells expressing NR1a and NR2B or NR2A NMDA receptor subunits. Cells are plated onto standard 96-well microplates and the cultures are maintained in an atmosphere of 95% air-5% CO2 at 37° C. until testing.
as §3, with “The cells are loaded with a fluorescent Ca^2+-sensitive dye, Fluo-4/AM (2-2.5 μM) prior to testing. Loading” for “Loading”
as §4

[1] = given 15 min before formalin, licking/biting time 20 to 25 min after formalin, >20 means inhibition less than 50% at 20 mg/kg p.o.
[2] = ip, mouse formalin test, read-out: ED50
[3] = Table 2, reference compounds, 10 uM compound
[4] = Table 1, inhibition of calcium rise induced by 200 μM NMDA, NR1a/NR2B transfected HEK293 cells, read-out: NR1a/NR2B IC50

T2 sequence (Q12879 23-1464, other chains not shown): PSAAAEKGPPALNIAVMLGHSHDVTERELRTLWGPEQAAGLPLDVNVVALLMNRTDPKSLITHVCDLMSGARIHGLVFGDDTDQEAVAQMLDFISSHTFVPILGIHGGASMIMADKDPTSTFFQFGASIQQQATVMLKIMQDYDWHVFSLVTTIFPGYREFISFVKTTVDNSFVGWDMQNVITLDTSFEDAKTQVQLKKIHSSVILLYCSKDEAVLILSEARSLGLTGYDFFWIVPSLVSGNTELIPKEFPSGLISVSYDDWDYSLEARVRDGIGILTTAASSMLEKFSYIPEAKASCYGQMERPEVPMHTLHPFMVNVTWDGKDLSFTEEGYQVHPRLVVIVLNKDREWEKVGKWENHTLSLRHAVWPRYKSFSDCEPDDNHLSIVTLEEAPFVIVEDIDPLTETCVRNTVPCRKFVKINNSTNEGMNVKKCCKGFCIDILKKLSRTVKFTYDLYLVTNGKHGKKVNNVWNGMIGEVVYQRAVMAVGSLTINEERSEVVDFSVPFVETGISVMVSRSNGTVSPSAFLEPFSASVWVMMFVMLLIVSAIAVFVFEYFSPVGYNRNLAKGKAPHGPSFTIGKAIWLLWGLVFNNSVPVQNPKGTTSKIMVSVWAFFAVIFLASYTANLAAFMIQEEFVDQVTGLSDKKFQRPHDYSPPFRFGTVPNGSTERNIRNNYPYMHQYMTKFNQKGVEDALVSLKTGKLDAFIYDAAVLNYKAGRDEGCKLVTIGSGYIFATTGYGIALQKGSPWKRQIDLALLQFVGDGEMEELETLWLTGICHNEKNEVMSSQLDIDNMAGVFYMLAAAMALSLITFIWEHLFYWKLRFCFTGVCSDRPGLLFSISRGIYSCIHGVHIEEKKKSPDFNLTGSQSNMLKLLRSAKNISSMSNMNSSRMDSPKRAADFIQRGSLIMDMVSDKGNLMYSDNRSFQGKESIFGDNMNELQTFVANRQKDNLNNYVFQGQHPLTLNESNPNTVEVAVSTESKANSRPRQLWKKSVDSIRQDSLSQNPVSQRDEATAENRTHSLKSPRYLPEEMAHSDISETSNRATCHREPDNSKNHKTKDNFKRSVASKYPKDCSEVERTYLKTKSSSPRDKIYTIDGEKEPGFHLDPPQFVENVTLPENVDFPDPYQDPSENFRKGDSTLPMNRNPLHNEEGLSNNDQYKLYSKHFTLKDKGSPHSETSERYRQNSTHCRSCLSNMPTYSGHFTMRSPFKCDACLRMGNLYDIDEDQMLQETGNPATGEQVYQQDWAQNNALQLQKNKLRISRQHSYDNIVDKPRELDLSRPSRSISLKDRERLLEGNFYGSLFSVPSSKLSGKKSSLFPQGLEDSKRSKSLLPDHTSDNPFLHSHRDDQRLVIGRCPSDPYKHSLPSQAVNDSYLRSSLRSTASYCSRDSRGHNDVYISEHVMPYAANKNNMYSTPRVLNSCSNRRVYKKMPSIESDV
T1 sequence (Q00960 27-1482, other chains not shown): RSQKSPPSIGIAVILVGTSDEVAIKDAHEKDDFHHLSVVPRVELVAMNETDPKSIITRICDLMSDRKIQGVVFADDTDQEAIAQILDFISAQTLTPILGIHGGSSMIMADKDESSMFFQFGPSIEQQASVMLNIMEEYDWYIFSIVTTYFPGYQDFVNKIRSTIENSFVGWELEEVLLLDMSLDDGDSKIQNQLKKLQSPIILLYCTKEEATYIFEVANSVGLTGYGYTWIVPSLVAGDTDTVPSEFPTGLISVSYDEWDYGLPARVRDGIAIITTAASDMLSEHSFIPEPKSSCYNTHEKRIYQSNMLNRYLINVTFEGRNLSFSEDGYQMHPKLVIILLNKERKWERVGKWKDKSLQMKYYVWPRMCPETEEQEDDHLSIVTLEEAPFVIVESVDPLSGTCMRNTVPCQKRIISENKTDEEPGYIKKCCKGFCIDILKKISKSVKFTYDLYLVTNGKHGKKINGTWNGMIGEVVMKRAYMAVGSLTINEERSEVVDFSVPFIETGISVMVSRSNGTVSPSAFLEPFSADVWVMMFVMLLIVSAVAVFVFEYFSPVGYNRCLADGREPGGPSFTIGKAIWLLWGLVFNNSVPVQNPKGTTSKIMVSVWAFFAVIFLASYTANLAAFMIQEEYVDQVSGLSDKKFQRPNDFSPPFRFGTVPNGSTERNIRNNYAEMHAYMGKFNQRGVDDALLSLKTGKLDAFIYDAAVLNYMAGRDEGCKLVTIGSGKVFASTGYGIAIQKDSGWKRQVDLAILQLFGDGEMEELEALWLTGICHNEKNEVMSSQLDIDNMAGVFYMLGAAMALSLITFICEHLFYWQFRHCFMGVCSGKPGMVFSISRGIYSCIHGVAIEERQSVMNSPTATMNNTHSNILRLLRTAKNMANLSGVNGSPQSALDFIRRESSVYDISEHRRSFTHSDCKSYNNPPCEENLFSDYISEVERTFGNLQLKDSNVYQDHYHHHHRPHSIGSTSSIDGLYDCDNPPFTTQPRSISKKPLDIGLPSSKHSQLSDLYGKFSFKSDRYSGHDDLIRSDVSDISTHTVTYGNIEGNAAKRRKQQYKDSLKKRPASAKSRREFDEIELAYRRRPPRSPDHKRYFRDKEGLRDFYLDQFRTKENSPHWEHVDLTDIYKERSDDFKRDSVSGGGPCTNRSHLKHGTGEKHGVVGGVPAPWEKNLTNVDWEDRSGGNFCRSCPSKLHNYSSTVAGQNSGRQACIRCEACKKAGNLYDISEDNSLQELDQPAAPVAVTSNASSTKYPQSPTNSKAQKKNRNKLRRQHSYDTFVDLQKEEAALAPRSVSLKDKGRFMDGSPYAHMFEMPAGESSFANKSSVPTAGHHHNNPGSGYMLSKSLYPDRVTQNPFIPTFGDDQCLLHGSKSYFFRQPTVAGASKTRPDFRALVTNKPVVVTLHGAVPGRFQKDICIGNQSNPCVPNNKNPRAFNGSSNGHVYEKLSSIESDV

Row | IC50 (NR1a/NR2B NMDA receptor; [4]) [nM] | inhibition at 15 µM (NR1-3/NR2A NMDA receptor) [%] | Compound | ED50 at 20 mg/kg (NMRI mice; [1]) [mg/kg] | other results
1 | – | – | O=c1[nH]c2ccc([S+]([O-])CCN3CCC(Cc4ccc(F)cc4)CC3)cc2o1 (centres unmarked) [CI-1041, 6-{2-[4-(4-fluoro-benzyl)-piperidin-1-yl]-ethanesulfinyl}-3H-benzooxazol-2-one] | 2.4 | –
2 | – | – | C[C@@H]([C@@H](O)c1ccc(O)cc1)N1CCC(O)(c2ccccc2)CC1 [CP 101,606, (1S,2S)-1-(4-hydroxyphenyl)-2-(4-hydroxy-4-phenylpiperidine-1-yl)-1-propanol] | > 20 | –
3 | – | – | Cc1ccc(CC2(O)CCN(CCOc3ccc(O)cc3)CC2)cc1 [Co-101244, 1-[2-(4-hydroxyphenoxy)ethyl]-4-hydroxy-4-(4-methylbenzyl)piperidine] | > 20 | ED50 (NMRI mice; [2]): 5.9 mg/kg
4 | – | – | O=C(CCN1CCC(Cc2ccc(F)cc2)CC1)c1ccc2[nH]c(=O)oc2c1 [EMD 95885, reference compound] | – | IC50 (NR1a/NR2B NMDA receptor; Table 2, reference compounds, inhibition of calcium rise induced by 200 μM NMDA, NR1a/NR2B transfected HEK293 cells, read-out: NR1a/NR2B IC50): 48 nM; ED50 (NMRI mice; p.o., given 15 min before formalin, licking/biting time 20 to 25 min after formalin, >20 means inhibition less than 50% at 20 mg/kg p.o.): 3.7 mg/kg; NR1-3/NR2A % inhibition at 10 uM (NR1-3/NR2A NMDA receptor; [3]): 0.1%
5 | 28 | 2.6 | O=C(NC(=O)N1CCC(Cc2ccccc2)CC1)c1ccc(O)cc1 [Example 1, 4-Benzyl-piperidine-1-carboxylic Acid 4-hydroxy-benzoylamide] | – | –
6 | 7.6 | -5.7 | COc1ccc(CC2CCN(C(=O)NC(=O)c3ccc(O)cc3)CC2)cc1 [Example 2, 4-(4-Methoxy-benzyl)-piperidine-1-carboxylic Acid 4-hydroxy-benzoylamide] | – | –
7 | 59.6 | -6.7 | O=C(NC(=O)N1CCC(Cc2ccccc2)CC1)c1ccc2[nH]c(=O)oc2c1 [Example 7, 4-Benzyl-piperidine-1-carboxylic Acid (2-oxo-2,3-dihydro-benzooxazole-6-carbonyl)-amide] | – | –
8 | 58.9 | -0.9 | COc1cccc(CC2CCN(C(=O)NC(=O)c3ccc(O)cc3)CC2)c1 [Example 26, 4-(3-Methoxy-benzyl)-piperidine-1-carboxylic Acid 4-hydroxy-benzoylamide] | – | –
9 | 14.3 | 11.4 | Cc1ccc(CCC2CCN(C(=O)NC(=O)c3ccc(O)cc3)CC2)cc1 [Example 27, 4-[2-(p-Tolyl)-ethyl]-piperidine-1-carboxylic acid 4-hydroxy-benzoylamide] | – | –
10 | 59.1 | -2.9 | O=C(NC(=O)N1CCC(CSc2ccccc2)CC1)c1ccc(O)cc1 [Example 28, 4-(Phenylthio-methyl)-piperidine-1-carboxylic Acid 4-hydroxy-benzoylamide] | – | –
11 | – | – | C[C@@H](CN1CCC(Cc2ccccc2)CC1)[C@@H](O)c1ccc(O)cc1 [Ro 25.6981, R—(R*,S*)-1-(4-hydroxyphenyl)-2-methyl-3-[4-(phenylmethyl)piperidin-1-yl]-1-propanol, reference compound] | > 20 | IC50 (NR1a/NR2B NMDA receptor): 57 nM; ED50 (NMRI mice; [2]): 5.1 mg/kg; inhibition at 10 µM (NR1-3/NR2A NMDA receptor; [3]): 1%
